Laboratory results taken from patent US7807411B2, “Genetically encoded fluorescent coumarin amino acids” (The Scripps Research Institute, priority 2006, dated 2010).

What was measured:
[1] = Absorption and emission spectra of the coumarin amino acid; type: physicochemical; details: phenolate form, pH 7.4, 100 mM sodium phosphate buffer
Experimental: FIG. 2 provides absorption and emission spectra of L-(7-hydroxycoumarin-4-yl)ethylglycine. Both spectra were recorded at pH 7.4, 100 mM sodium phosphate buffer. At this pH, L-(7-hydroxycoumarin-4-yl)ethylglycine is present in both phenol and phenolate forms (in approximately a 2:1 ratio). The phenolate form has an extinction coefficient of 17000 at […] and a quantum yield of 0.63.

[2] = pH sensitivity of the absorption spectrum (pKa determination); type: physicochemical; details: 60 μM in 100 mM sodium phosphate buffer, calculated from absorbance at 360 nm versus pH
Experimental: FIG. 7 provides an absorption spectrum of 60 μM coumarinyl amino acid L-(7-hydroxycoumarin-4-yl)ethylglycine in 100 mM sodium phosphate buffer.
The absorption spectrum of 60 μM coumarinyl amino acid 7-hydroxycoumarin-ethylglycine was measured in 100 mM sodium phosphate buffer. The absorbance of 360 nm increased while pH increased.

[3] = tested on: amber codon in the chloramphenicol acetyl transferase (CAT) gene; assay: Chloramphenicol survival of synthetase clones (amber suppression in CAT gene); type: cell-based, E. coli; details: 60 hours at 37° C., GMML-agar
Experimental: Subsequently, this library was subjected to rounds of both positive and negative selections. In the positive selection, cell survival is dependent on the suppression of an amber codon introduced at a permissive site in the chloramphenicol acetyl transferase (CAT) gene when cells co-transformed with pBK-lib and MjtRNA^TyrCUA are grown in the presence of 1 mM unnatural amino acid (UAA) and chloramphenicol (Xie and Schultz, Methods (2005) 36:227-238). Positively selected clones are then transformed into cells containing MjtRNA^TyrCUA and a gene encoding the toxic barnase protein with three amber mutations introduced at permissive sites. These cells are grown in the absence of UAA to remove any clones that utilize endogenous amino acids (negative selection). These positive and negative selection are described in detail below.
Positive Selection—E. coli DH10B harboring the pREP(2)/YC plasmid was used as the host strain for the positive selection. Cells were transformed with the pBK-lib5 library, recovered in SOC for 1 hour, washed twice with glycerol minimal media with leucine (GMML) before plating on GMML-agar plates supplemented with kanamycin, chloramphenicol, tetracycline and 7-hydroxycoumarin-ethylglycine at 50 μg/mL, 60 μg/mL, 15 μg/mL and 1 mM respectively. […]

Molecule	extinction coefficient ([1]; at 360 nm)	quantum yield [1]	pKa [2]	chloramphenicol concentration at which the clone survives ([3]; in the absence of 7-hydroxycoumarin-ethylglycine)	chloramphenicol concentration at which the clone survives ([3]; in the presence of 1 mM 7-hydroxycoumarin-ethylglycine)
N[C@@H](CCc1cc(=O)oc2cc(O)ccc12)C(=O)O [L-(7-hydroxycoumarin-4-yl)ethylglycine]	17000 M⁻¹ cm⁻¹	0.63	7.8		
CouRS-D8 (protein, L-(7-hydroxycoumarin-4-yl) ethylglycine aminoacyl-tRNA synthetase) MDEFEMIKRNTSEIISEEELREVLKKDEKSAEIGFEPSGKIHLGHYLQIKKMIDLQNAGFDIIIHLGDLGAYLNQKGELDEIRKIGDYNKKVFEAMGLKAKYVYGSEYHLDKDYTLNVYRLALKTTLKRARRSMELIAREDENPKVAEVIYPIMQVNGIHYGGVDVAVGGMEQRKIHMLARELLPKKVVCIHNPVLTGLDGEGKMSSSKGNFIAVDDSPEEIRAKIKKAYCPAGVVEGNPIMEIAKYFLEYPLTIKRPEKFGGDLTVNSYEELESLFKNKELHPMDLKNAVAEELIKILEPIRKRL				20 µg/mL	100 µg/mL
